Holding throughout (assay): Kinase panel profiling at 1 µmol/L (mobility shift assay, Carna)
What all share (assay type): biochemical
Details in all cases: 1 µmol/L of BTK inhibitor

The target of one assay is T1, EPHA2 (Homo sapiens, UniProt P29317).
T1 construct: purchased Carna Biosciences

The target of another assay is T2, DYRK3 (Homo sapiens, UniProt O43781).
T2 construct: purchased Carna Biosciences
T2 sequence (O43781 1-588): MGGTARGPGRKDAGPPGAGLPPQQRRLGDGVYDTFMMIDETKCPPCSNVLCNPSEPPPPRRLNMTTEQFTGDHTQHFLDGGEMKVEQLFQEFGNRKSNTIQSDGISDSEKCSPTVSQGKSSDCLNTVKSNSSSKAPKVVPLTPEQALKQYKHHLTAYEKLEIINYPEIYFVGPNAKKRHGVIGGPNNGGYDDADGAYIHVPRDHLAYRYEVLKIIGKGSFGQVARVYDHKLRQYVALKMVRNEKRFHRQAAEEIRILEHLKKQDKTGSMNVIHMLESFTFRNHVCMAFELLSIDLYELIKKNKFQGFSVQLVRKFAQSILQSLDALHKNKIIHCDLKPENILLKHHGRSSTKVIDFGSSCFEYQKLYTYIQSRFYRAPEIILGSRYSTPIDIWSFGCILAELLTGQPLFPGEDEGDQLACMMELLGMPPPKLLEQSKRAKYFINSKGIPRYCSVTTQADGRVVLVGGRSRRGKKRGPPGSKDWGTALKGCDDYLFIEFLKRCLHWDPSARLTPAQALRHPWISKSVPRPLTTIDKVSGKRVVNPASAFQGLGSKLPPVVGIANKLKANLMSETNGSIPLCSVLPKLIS

Another assay deals with T3, DYRK2 (Homo sapiens, UniProt Q92630).
T3 construct: purchased Carna Biosciences
T3 sequence (Q92630 1-601): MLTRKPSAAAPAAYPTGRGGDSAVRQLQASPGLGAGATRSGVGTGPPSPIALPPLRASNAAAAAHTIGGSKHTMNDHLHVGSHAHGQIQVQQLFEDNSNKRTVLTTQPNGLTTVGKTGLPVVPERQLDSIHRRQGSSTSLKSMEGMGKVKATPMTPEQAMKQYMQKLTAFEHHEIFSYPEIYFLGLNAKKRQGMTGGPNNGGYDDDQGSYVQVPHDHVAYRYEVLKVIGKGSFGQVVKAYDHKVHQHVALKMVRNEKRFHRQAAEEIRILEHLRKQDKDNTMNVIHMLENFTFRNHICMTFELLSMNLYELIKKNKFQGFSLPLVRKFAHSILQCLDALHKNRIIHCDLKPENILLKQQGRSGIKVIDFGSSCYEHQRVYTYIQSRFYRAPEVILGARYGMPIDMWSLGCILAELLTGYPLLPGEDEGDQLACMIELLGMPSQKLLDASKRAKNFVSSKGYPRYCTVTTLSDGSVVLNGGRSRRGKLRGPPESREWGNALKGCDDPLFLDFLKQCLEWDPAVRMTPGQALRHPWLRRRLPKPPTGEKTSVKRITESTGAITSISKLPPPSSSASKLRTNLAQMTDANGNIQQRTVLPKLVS

The target of a further assay is T4, NEK7 (Homo sapiens, UniProt Q8TDX7).
T4 construct: purchased Carna Biosciences

Another assay addresses T5, LYNb (Homo sapiens, UniProt P07948).
T5 construct: purchased Carna Biosciences

The next assay has as its target T6, p70S6K (Homo sapiens, UniProt P23443).
T6 construct: purchased Carna Biosciences

A further assay has as its target T7, PASK (Homo sapiens, UniProt Q96RG2).
T7 construct: purchased Carna Biosciences

The next assay has as its target T8, PAK4 (Homo sapiens, UniProt O96013).
T8 construct: purchased Carna Biosciences

The target in the next assay is T9, CK1γ2 (Homo sapiens, UniProt P78368).
T9 construct: purchased Carna Biosciences

The next assay concerns the target T10, EEF2K (Homo sapiens, UniProt O00418).
T10 construct: purchased Carna Biosciences
T10 sequence (O00418 1-725): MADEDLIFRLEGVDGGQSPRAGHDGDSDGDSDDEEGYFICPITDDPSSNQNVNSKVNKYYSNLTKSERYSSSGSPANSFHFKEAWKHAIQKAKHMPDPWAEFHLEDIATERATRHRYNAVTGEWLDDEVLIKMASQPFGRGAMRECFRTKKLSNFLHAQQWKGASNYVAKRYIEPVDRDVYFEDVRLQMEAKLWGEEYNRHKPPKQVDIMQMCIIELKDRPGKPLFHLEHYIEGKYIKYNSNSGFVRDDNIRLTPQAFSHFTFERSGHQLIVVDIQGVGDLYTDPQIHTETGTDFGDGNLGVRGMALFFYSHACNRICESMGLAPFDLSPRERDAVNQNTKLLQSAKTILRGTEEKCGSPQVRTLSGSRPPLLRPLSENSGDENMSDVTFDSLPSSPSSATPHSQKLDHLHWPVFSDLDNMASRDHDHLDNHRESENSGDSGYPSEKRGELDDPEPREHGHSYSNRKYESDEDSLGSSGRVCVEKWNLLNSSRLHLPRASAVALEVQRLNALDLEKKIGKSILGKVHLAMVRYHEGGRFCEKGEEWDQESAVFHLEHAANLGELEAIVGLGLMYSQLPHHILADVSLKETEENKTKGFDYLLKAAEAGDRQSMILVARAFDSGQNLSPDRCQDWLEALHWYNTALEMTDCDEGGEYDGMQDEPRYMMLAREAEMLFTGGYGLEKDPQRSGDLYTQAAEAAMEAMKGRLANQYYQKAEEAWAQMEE

Another assay deals with T11, PIM1 (Homo sapiens, UniProt P11309).
T11 construct: purchased Carna Biosciences

The target in another assay is T12, CHK2 (Homo sapiens, UniProt O96017).
T12 construct: purchased Carna Biosciences

T8 sequence (O96013 whole entry): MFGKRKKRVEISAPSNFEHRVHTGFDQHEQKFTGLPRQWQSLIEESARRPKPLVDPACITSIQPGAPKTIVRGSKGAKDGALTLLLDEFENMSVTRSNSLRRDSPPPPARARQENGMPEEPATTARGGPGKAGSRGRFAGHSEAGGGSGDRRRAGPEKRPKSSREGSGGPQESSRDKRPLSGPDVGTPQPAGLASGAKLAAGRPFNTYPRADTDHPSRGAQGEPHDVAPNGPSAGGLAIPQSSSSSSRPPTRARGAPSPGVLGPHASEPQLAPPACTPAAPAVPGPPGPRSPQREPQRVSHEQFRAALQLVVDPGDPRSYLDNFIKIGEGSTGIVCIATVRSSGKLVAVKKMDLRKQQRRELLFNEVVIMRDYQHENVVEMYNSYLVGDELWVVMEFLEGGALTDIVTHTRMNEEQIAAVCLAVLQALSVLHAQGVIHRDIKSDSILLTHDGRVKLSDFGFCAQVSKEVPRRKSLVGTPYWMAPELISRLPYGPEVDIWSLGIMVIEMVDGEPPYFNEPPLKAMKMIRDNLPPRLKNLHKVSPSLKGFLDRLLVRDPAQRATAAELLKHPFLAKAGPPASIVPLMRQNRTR
T11 sequence (P11309 whole entry): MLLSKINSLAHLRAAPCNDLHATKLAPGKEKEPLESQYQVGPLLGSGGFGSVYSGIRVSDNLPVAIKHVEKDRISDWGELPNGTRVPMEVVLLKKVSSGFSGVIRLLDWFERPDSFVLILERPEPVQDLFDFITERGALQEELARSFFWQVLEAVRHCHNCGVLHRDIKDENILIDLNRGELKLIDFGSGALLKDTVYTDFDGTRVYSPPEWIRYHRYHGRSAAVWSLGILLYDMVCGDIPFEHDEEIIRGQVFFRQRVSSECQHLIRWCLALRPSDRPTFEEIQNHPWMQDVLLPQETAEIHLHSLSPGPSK
T9 sequence (P78368 whole entry): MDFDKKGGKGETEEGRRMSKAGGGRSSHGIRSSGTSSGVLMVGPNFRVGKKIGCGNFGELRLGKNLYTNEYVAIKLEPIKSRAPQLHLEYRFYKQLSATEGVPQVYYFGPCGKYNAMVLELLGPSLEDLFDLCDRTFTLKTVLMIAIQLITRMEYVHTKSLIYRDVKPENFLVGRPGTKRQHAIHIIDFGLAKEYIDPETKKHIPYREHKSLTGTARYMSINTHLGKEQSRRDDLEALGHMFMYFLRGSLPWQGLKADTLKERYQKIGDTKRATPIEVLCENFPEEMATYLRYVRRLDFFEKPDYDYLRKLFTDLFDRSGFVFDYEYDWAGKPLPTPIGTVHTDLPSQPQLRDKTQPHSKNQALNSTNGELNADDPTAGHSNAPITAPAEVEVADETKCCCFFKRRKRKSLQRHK
T7 sequence (Q96RG2 whole entry): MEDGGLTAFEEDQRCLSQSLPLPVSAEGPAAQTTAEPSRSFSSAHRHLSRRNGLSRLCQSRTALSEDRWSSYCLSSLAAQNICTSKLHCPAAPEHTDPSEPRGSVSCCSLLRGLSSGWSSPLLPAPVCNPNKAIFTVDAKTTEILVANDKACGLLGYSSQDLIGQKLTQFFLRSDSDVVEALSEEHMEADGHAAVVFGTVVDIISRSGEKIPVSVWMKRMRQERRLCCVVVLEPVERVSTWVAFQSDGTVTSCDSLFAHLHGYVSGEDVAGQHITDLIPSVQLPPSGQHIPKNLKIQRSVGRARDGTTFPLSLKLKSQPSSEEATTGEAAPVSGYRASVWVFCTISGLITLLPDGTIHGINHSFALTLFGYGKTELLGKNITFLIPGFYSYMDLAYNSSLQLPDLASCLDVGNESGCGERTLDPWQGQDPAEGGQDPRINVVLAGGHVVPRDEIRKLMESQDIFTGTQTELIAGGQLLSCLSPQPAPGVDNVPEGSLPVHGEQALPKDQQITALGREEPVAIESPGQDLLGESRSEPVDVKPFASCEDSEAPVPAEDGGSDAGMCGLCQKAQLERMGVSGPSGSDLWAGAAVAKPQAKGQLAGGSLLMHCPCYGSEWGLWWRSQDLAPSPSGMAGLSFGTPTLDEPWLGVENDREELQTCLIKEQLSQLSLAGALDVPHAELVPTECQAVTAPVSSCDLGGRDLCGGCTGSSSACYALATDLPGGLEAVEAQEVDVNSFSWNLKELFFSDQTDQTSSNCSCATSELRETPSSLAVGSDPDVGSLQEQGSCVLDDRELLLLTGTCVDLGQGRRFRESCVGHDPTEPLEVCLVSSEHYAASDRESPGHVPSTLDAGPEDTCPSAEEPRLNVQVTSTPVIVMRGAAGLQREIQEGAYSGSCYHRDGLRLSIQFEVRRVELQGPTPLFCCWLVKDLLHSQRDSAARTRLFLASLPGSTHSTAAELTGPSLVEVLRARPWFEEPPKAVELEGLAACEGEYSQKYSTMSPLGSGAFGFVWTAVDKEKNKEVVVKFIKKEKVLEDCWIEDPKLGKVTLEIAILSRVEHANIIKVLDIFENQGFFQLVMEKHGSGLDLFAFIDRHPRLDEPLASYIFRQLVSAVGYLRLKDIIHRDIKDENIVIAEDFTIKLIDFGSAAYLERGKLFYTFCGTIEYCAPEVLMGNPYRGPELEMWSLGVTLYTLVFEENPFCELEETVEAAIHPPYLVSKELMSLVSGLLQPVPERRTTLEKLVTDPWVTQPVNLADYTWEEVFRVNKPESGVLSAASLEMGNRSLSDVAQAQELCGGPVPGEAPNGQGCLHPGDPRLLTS
T4 sequence (Q8TDX7 whole entry): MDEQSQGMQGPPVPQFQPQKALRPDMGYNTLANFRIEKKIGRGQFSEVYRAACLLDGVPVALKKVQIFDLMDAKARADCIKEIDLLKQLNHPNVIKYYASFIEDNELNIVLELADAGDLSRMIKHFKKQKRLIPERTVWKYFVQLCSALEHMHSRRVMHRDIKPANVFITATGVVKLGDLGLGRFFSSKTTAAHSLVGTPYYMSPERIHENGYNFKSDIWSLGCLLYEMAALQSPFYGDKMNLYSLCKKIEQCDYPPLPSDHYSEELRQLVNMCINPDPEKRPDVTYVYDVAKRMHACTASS
T5 sequence (P07948 1-491 isoform P07948-2): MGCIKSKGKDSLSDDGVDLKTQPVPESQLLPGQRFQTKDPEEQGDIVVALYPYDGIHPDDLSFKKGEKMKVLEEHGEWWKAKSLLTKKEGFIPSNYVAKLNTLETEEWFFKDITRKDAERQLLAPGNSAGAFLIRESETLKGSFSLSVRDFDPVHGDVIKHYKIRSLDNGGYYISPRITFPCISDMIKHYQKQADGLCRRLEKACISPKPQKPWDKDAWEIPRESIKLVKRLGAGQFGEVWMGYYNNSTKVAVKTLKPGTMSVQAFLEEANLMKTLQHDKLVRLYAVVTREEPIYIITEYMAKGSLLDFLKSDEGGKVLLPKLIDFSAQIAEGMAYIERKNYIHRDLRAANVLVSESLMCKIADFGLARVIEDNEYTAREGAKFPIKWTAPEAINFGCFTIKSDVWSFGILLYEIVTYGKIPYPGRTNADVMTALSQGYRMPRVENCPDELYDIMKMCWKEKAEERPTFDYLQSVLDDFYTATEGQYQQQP
T6 sequence (P23443 whole entry): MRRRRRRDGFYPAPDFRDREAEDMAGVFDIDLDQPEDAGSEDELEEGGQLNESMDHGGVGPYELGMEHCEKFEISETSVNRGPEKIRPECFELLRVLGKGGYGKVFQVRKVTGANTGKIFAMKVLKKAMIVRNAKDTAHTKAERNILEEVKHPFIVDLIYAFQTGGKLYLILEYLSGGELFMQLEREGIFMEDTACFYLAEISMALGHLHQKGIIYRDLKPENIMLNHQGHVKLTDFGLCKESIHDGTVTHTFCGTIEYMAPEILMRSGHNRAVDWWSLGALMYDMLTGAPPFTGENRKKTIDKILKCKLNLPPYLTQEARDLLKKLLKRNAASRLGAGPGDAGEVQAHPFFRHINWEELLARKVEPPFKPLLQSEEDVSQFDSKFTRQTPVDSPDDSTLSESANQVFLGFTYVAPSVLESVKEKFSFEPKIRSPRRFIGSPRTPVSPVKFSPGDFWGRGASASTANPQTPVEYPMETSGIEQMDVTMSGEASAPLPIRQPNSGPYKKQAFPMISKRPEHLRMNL
T1 sequence (P29317 24-976): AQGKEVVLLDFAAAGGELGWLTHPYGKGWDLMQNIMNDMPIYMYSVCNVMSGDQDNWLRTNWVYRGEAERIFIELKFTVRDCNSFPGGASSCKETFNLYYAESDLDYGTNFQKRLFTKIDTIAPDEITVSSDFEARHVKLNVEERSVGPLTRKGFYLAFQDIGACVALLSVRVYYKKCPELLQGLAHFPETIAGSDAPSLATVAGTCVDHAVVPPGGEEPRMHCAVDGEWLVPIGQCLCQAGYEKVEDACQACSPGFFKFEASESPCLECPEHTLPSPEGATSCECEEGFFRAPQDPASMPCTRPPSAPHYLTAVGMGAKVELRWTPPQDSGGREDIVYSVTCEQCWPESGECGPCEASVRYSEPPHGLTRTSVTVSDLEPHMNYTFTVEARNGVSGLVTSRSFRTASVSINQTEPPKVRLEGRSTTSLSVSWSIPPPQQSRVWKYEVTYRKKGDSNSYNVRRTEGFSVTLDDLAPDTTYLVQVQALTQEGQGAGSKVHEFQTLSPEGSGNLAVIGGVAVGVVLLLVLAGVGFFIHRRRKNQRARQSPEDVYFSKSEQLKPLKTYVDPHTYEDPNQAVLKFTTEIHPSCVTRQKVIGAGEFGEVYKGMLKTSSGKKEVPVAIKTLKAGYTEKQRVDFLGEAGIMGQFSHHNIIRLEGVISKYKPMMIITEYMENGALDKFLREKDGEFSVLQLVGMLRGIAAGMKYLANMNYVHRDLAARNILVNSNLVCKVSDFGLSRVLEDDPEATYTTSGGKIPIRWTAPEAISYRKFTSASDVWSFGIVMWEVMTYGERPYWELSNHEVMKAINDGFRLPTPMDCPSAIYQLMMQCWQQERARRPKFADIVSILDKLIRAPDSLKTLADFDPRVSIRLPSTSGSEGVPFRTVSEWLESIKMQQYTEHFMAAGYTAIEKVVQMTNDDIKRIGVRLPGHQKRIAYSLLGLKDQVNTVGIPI

With `C=CC(=O)N1CCC([C@@H]2CCNc3c(C(N)=O)c(-c4ccc(Oc5ccccc5)cc4)nn32)CC1` [zanubrutinib], the “Percentage inhibition of kinase enzyme activity” value (“Percentage inhibition” for short) at EPHA2 was -0.10%.
For the compound `CC#CC(=O)N1CCC[C@H]1c1nc(-c2ccc(C(=O)Nc3ccccn3)cc2)c2c(N)nccn12` [acalabrutinib], the “Percentage inhibition” value at DYRK3 was 0.35%; on EPHA2 it was -3.60%; at DYRK2 it was -16.01%; on NEK7, -10.68%; at LYNb, -1.97%; at p70S6K it was -13.73%. Further, the “Percentage inhibition” value is recorded as -5.37% on PASK; -1.65% at PAK4; -7.07% on CK1γ2; -12.14% on EEF2K; -4.28% at PIM1; -5.77% at CHK2.
Consider `COc1ccc(F)cc1C(=O)NCc1ccc(-c2nn([C@@H](C)C(F)(F)F)c(N)c2C(N)=O)cc1` [pirtobrutinib], for which the “Percentage inhibition” value at DYRK3 is recorded as 7.54%; at EPHA2, 4.53%; at DYRK2, -4.14%; at NEK7, -2.19%; at LYNb, 26.06%; at p70S6K, -0.48%. Besides, the “Percentage inhibition” value is reported as 3.07% on PASK; 4.35% on PAK4; 1.27% at CK1γ2; -0.12% at EEF2K; 3.95% on PIM1; 7.28% on CHK2.
As for `O=C(c1ccc(Oc2ccccc2)cc1Cl)c1c[nH]c2ncnc(N[C@@H]3CC[C@@H](CO)OC3)c12` [nemtabrutinib], the “Percentage inhibition” value at DYRK3 is -5.63%; on EPHA2, 33.13%; on DYRK2 it was -2.66%; on NEK7, 3.06%; at LYNb it was 66.12%; on p70S6K it was 4.51%. In addition, the “Percentage inhibition” value at PASK was 21.76%; on PAK4 it was 53.09%; at CK1γ2, -5.17%; at EEF2K, 0.24%; on PIM1, -15.07%; at CHK2 it was 49.89%.
`C=CC(=O)N1CCC[C@@H](n2nc(-c3ccc(Oc4ccccc4)cc3)c3c(N)ncnc32)C1` [ibrutinib]: the “Percentage inhibition” value at DYRK3 is listed as -3.93%; on EPHA2, 6.83%; on DYRK2, -1.83%; on NEK7 it was 0.69%; at LYNb, 100.13%; on p70S6K, 19.28%. The “Percentage inhibition” value was -0.0437% on PASK; 10.65% at PAK4; 1.01% at CK1γ2; 1.15% on EEF2K; 14.14% on CHK2.

The values are drawn from publication PMC12586182 (Frontiers in Oncology, 2025).
